Laboratory results taken from patent publication US9320274B2, “Synergistic weed control from applications of aminocyclopyrachlor and clopyralid” (Dow AgroSciences LLC, priority 2012, dated 2016).

What was measured:
[1] = test system: calvary clover (Medicago arabica, MEDAB); assay: Field trial, post-emergence foliar application, weed control of calvary clover; assay type: in vivo; details: 27 days, applied alone
Source text: The (a) aminocyclopyrachlor or an agriculturally acceptable salt or ester thereof is mixed with or applied in combination with (b) clopyralid or an agriculturally acceptable salt or ester thereof in an amount sufficient to induce a synergistic herbicidal effect. […] As described in the Herbicide Handbook of the Weed Science Society of America, Ninth Edition, 2007, p. 429, “'synergism' [is] an interaction of two or more factors such that the effect when combined is greater than the predicted effect based on the response to each factor applied separately.” Synergistic in the herbicide context can mean that the use of (a) and (b) as defined above results in an increased weed control effect compared to the weed control effects that are possible with the use of (a) or (b) alone. In some embodiments, the damage or injury to the undesired vegetation caused by the compositions and methods disclosed herein is evaluated using a scale from 0% to 100%, when compared with the untreated control vegetation, wherein 0% indicates no damage to the undesired vegetation and 100% indicates complete destruction of the undesired vegetation. […] 22 (1967) Field trials were conducted with applications made to established grassland with naturally occurring weed populations. The target plants were treated with postemergence foliar applications when they reached three to five inches tall. All treatments were applied using a randomized complete block trial design, with 4 replications per treatment. Treatments consisted of aminocyclopyrachlor in acid form and clopyralid-olamine, each in water and applied alone or in combination. Spray solutions were prepared using an appropriate amount of dilution to form a 2 L aqueous spray solution with active ingredients in single and two way combinations. Formulated compounds were applied to the plant material with a backpack sprayer equipped with 8003 nozzles calibrated to deliver 187 L/ha at a spray height of 18 inches (43 centimeters (cm)) above average plant canopy. […] The results were measured at 7 days and 27 days after the first application of the compositions. […]

[2] = test system: buckhorn plantain (Plantago lanceolata, PLALA); assay: Field trial, post-emergence foliar application, weed control of buckhorn plantain; assay type: in vivo; details: applied alone
Source text: The (a) aminocyclopyrachlor or an agriculturally acceptable salt or ester thereof is mixed with or applied in combination with (b) clopyralid or an agriculturally acceptable salt or ester thereof in an amount sufficient to induce a synergistic herbicidal effect. […] As described in the Herbicide Handbook of the Weed Science Society of America, Ninth Edition, 2007, p. 429, “'synergism' [is] an interaction of two or more factors such that the effect when combined is greater than the predicted effect based on the response to each factor applied separately.” Synergistic in the herbicide context can mean that the use of (a) and (b) as defined above results in an increased weed control effect compared to the weed control effects that are possible with the use of (a) or (b) alone. In some embodiments, the damage or injury to the undesired vegetation caused by the compositions and methods disclosed herein is evaluated using a scale from 0% to 100%, when compared with the untreated control vegetation, wherein 0% indicates no damage to the undesired vegetation and 100% indicates complete destruction of the undesired vegetation. […] 22 (1967) Field trials were conducted with applications made to established grassland with naturally occurring weed populations. The target plants were treated with postemergence foliar applications when they reached three to five inches tall. All treatments were applied using a randomized complete block trial design, with 4 replications per treatment. Treatments consisted of aminocyclopyrachlor in acid form and clopyralid-olamine, each in water and applied alone or in combination. Spray solutions were prepared using an appropriate amount of dilution to form a 2 L aqueous spray solution with active ingredients in single and two way combinations. Formulated compounds were applied to the plant material with a backpack sprayer equipped with 8003 nozzles calibrated to deliver 187 L/ha at a spray height of 18 inches (43 centimeters (cm)) above average plant canopy. The treated plants were buckhorn plantain (Plantago lanceolata, PLALA) and […] clover (Medicago arabica, MEDAB). The treated plots and control plots were rated blind at various intervals after application. Ratings were based on a scale of 0-100%, as discussed above, wherein 0% indicates no damage to the undesired vegetation and 100% indicates complete destruction of the undesired vegetation Colby's equation was used to determine the herbicidal effects expected from the mixtures, as described above. The results were measured at 7 days and 27 days after the first application of the compositions. […] The herbicide tank mix combinations tested, application rates and ratios employed, plant species tested, and results are given below.

| Compound | Mean % weed control ([1]; 35 g ae/ha) | Mean % weed control ([1]; 70 g ae/ha) | Mean % weed control ([2]; 7 days, 35 g ae/ha) | Mean % weed control ([2]; 27 days, 70 g ae/ha) | Mean % weed control ([1]; 18 g ae/ha) | Mean % weed control ([2]; 7 days, 18 g ae/ha) | Mean % weed control ([2]; 27 days, 18 g ae/ha) | Mean % weed control ([2]; 27 days, 35 g ae/ha) |
| --- | --- | --- | --- | --- | --- | --- | --- | --- |
| O=C(O)c1nc(Cl)ccc1Cl [Clopyralid-olamine, clopyralid-olamine] | 13% | 30% | 18% | 28% |  |  |  |  |
| Nc1nc(C2CC2)nc(C(=O)O)c1Cl [Aminocyclopyrachlor, 6-amino-5-chloro-2-cyclopropylpyrimidine-4-carboxylic acid] |  |  |  |  | 27.5% | 18.75% | 22.5% | 35% |
